From patent US7034035B2, “Fungicidal mono-, bi-, and tri-cycloheteroalkyl amides and their compositions, methods of use and preparation” (priority 1999, dated 2006)

Experiments:
Ustilago maydis (USTIMA) = experiment: microbe, parasite or virus in culture; assay type: cell-based
[1] = test system: Rhizoctonia solani (RHIZSO); experiment: microbe, parasite or virus in culture; assay type: cell-based
Further: test concentration or dose not given here.

SMILES	USTIMA in vitro Growth Inhibition (Ustilago maydis (USTIMA))	RHIZSO in vitro Growth Inhibition [1]
O=C(NCC1CCCCC1)c1ncccc1O [Compound 202]	− (key: +: at least 80% growth inhibition; −: less than 80% growth inhibition)	− (key: +: at least 80% growth inhibition; −: less than 80% growth inhibition)
COc1ccnc(C(=O)N[C@@H]2CC3CC2C[C@@H]3COCc2cccc(C(F)(F)F)c2)c1O (stereo partly shown) [Compound 297]	− (key: +: at least 80% growth inhibition; −: less than 80% growth inhibition)	+ (key: +: at least 80% growth inhibition; −: less than 80% growth inhibition)
O=C(NCc1ccc(Cl)c(Cl)c1)c1ncccc1O [Compound 221]	− (key: +: at least 80% growth inhibition; −: less than 80% growth inhibition)	− (key: +: at least 80% growth inhibition; −: less than 80% growth inhibition)
O=C(NCCCCc1ccccc1)c1ncccc1O [Compound 234]	− (key: +: at least 80% growth inhibition; −: less than 80% growth inhibition)	− (key: +: at least 80% growth inhibition; −: less than 80% growth inhibition)
COc1ccnc(C(=O)NC2CC(C)(C)C(=O)C(C)(C)C2)c1O [Compound 266]	− (key: +: at least 80% growth inhibition; −: less than 80% growth inhibition)	− (key: +: at least 80% growth inhibition; −: less than 80% growth inhibition)
COc1ccnc(C(=O)N[C@@H](CO)C(=O)O[C@@H](C)[C@H](OC(=O)C(C)C)[C@@H](Cc2ccccc2)C(=O)O)c1O [Compound 341]	− (key: +: at least 80% growth inhibition; −: less than 80% growth inhibition)	− (key: +: at least 80% growth inhibition; −: less than 80% growth inhibition)
COc1ccnc(C(=O)N[C@@H]2CC3CC2[C@@H](C(=O)OCCc2ccccc2)[C@H]3C(=O)OCC(C)C)c1O (stereo partly shown) [Compound 301]	− (key: +: at least 80% growth inhibition; −: less than 80% growth inhibition)	+ (key: +: at least 80% growth inhibition; −: less than 80% growth inhibition)
COc1ccnc(C(=O)N[C@@H]2CC3CC2[C@H]2COC[C@@H]32)c1O (stereo partly shown) [Compound 302]	− (key: +: at least 80% growth inhibition; −: less than 80% growth inhibition)	− (key: +: at least 80% growth inhibition; −: less than 80% growth inhibition)
O=C(NC1CCCCCCC1)c1ncccc1O [Compound 203]	− (key: +: at least 80% growth inhibition; −: less than 80% growth inhibition)	+ (key: +: at least 80% growth inhibition; −: less than 80% growth inhibition)
COc1ccnc(C(=O)NC2C[C@H](C)O[C@](C)(Cc3ccccc3)C2)c1O (stereo partly shown) [Compound 313]	− (key: +: at least 80% growth inhibition; −: less than 80% growth inhibition)	− (key: +: at least 80% growth inhibition; −: less than 80% growth inhibition)
O=C(Nc1nccs1)c1ncccc1O [Compound 235]	+ (key: +: at least 80% growth inhibition; −: less than 80% growth inhibition)	+ (key: +: at least 80% growth inhibition; −: less than 80% growth inhibition)
O=C(NCc1cccc2ccccc12)c1ncccc1O [Compound 228]	− (key: +: at least 80% growth inhibition; −: less than 80% growth inhibition)	− (key: +: at least 80% growth inhibition; −: less than 80% growth inhibition)
COc1ccnc(C(=O)N[C@H]2CC[C@@H](Oc3ccc(C(F)(F)F)cc3)CC2)c1O [Compound 271]	+ (key: +: at least 80% growth inhibition; −: less than 80% growth inhibition)	+ (key: +: at least 80% growth inhibition; −: less than 80% growth inhibition)
COc1ccnc(C(=O)NC2CCC[C@H]3CC(CCC=C(C)C)=CC[C@@H]23)c1O (stereo partly shown) [Compound 286]	− (key: +: at least 80% growth inhibition; −: less than 80% growth inhibition)	+ (key: +: at least 80% growth inhibition; −: less than 80% growth inhibition)
COc1ccnc(C(=O)NC2CCCC2O)c1O (stereo not shown) [Compound 248]	− (key: +: at least 80% growth inhibition; −: less than 80% growth inhibition)	− (key: +: at least 80% growth inhibition; −: less than 80% growth inhibition)
COc1ccnc(C(=O)NC2CCC[C@H]3[C@H]4CC[C@H](C4)[C@@H]23)c1O (stereo partly shown) [Compound 291]	− (key: +: at least 80% growth inhibition; −: less than 80% growth inhibition)	+ (key: +: at least 80% growth inhibition; −: less than 80% growth inhibition)
COc1ccnc(C(=O)N[C@H]2CC3CC2C[C@@H]3COCc2cccc(C(F)(F)F)c2)c1O (stereo partly shown) [Compound 296]	− (key: +: at least 80% growth inhibition; −: less than 80% growth inhibition)	+ (key: +: at least 80% growth inhibition; −: less than 80% growth inhibition)
COc1ccnc(C(=O)NC2c3ccccc3CC2(C)C)c1O (stereo not shown) [Compound 284]	− (key: +: at least 80% growth inhibition; −: less than 80% growth inhibition)	− (key: +: at least 80% growth inhibition; −: less than 80% growth inhibition)
COc1ccnc(C(=O)NC2CC3OC2C(C)C(OC(=O)C(C)C)C3C)c1O (stereo not shown) [Compound 320]	− (key: +: at least 80% growth inhibition; −: less than 80% growth inhibition)	− (key: +: at least 80% growth inhibition; −: less than 80% growth inhibition)
COc1cccc(CNC(=O)c2ncccc2O)c1 [Compound 225]	− (key: +: at least 80% growth inhibition; −: less than 80% growth inhibition)	− (key: +: at least 80% growth inhibition; −: less than 80% growth inhibition)
COc1ccnc(C(=O)NC2CC(C(F)(F)F)CC(C(F)(F)F)C2)c1O (stereo not shown) [Compound 256]	− (key: +: at least 80% growth inhibition; −: less than 80% growth inhibition)	− (key: +: at least 80% growth inhibition; −: less than 80% growth inhibition)
COc1ccnc(C(=O)NC2COC(C)C2)c1O (stereo not shown) [Compound 310]	− (key: +: at least 80% growth inhibition; −: less than 80% growth inhibition)	− (key: +: at least 80% growth inhibition; −: less than 80% growth inhibition)
COc1ccnc(C(=O)NC2C3CSC2CN(Cc2ccccc2)C3)c1O (stereo not shown) [Compound 325]	− (key: +: at least 80% growth inhibition; −: less than 80% growth inhibition)	− (key: +: at least 80% growth inhibition; −: less than 80% growth inhibition)
O=C(Nc1cccc(Cl)c1)c1ncccc1O [Compound 212]	− (key: +: at least 80% growth inhibition; −: less than 80% growth inhibition)	− (key: +: at least 80% growth inhibition; −: less than 80% growth inhibition)
COc1ccnc(C(=O)NC2CCN(C(=O)c3ccccc3)CC2)c1O [Compound 308]	− (key: +: at least 80% growth inhibition; −: less than 80% growth inhibition)	
